In US20260364184A1, “COMPOUND BASED ON OXOISOINDOLINYL-SUBSTITUTED TETRAHYDROPYRIMIDINE-DIONE AND USE THEREOF” (GLUETACS THERAPEUTICS (SHANGHAI) CO., LTD., priority 2023, published 2026):

Experiments:
[1] = target: ER (Homo sapiens, UniProt P03372); test: Western blot degradation of ER; format: cell-based; details: Table IIA3, ER inhibitor-based
Procedure: (§1) Conventional Western blot assay was performed to evaluate the effects of the compounds of the present disclosure on the expression of target proteins in cells.
(§2) (1) Cell Seeding and Protein Harvesting: The selected cells were processed according to the cell seeding procedure and protein harvesting procedure in Table II-2.
(§3) (2) To the collected supernatant, 5×SDS sample loading buffer was added, followed by denaturation at 95 °C for 5 minutes. The denatured samples were then separated by SDS-PAGE electrophoresis on a polyacrylamide gel. Proteins were transferred to a nitrocellulose membrane (0.45 μm NC membrane), blocked with blocking buffer at room temperature for 1 hour, and subjected to antibody incubation and development procedures according to the antibody manufacturer's instructions (Cell Signaling Technology).
(§4) Half-Maximal Degradation Concentration value (the drug concentration required for degrading proteins by 50%, abbreviated as DC50) reads method: comparing the grayscale values of Western blot bands from drug-treated samples with those from blank DMSO-treated controls, and identifying the drug concentration range at which the grayscale value is half that of the DMSO-treated control bands.
(§5) DC50 values can be calculated using ImageJ software to measure grayscale values of Western blot bands from drug-treated samples. […]

[2] = test system: Human Multiple myeloma cell line (MM.1S); test: Inhibition of MM.1S cell proliferation (CellTiter luminescent viability); format: cell-based; details: Table IC1, BTK inhibitor-based, 96 hours, read-out: Inhibitory activity (IC50, nM) on tumor cell proliferation, MM.1S
In short: (§6)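 Cells are seeded in 96-well plates, cultured at 37 °C, 5% CO2, and treated next day with 5-fold serial compound dilutions (stock series from 2000 μM; 0.5 μL into 100 μL medium). Viability is read by CellTiter-Meiluncell luminescence after the set exposure, and IC50 is taken from growth-inhibition curves.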

[3] = test system: Human T lymphocytic leukemia cell line (Jurkat); test: Inhibition of Jurkat cell proliferation (CellTiter luminescent viability); format: cell-based; details: Table IC1, BTK inhibitor-based, 96 hours, read-out: Inhibitory activity (IC50, nM) on tumor cell proliferation, Jurkat
[4] = test system: Human gastric cancer cell line MGC803; test: Inhibition of MGC803 tumor cell proliferation (CellTiter luminescent viability); format: cell-based; details: Table IC1, BTK inhibitor-based; MGC803, 96 hours; read-out: Inhibitory activity (IC50, nM) on tumor cell proliferation, MGC803
Procedure: (§7) The tumor cells used herein were cultured in a cell culture medium listed in table 3 at 37 °C in an incubator with 5% CO2. Prior to experimentation, all cell lines used were correctly identified by STR profiling, and tested negative for mycoplasma contamination using a mycoplasma detection kit through routine screenings.
(§8) The IC50 values of the compounds of the present disclosure (including the compounds in Table 1, Table 2, and Examples 1-468) were determined using the CellTiter-Meiluncell Luminescent Cell Viability Assay Kit from Dalian Meilun Biotech Co., Ltd. The detailed procedure is as follows: Tumor cells were seeded in 96-well cell culture plates at the densities specified in Table 4. On the following day, the test compounds of the present disclosure were subjected to serial dilution. The dilution can be performed according to one of the following two methods: • (1) The first dilution method: The test compounds of the present disclosure (including the compounds in Table 1, Table 2, and Examples 1-468) were subjected to 5-fold serial dilutions starting from a highest concentration of 2000 μM, resulting in a total of 9 concentrations from high to low (2000, 400, 80, 16, 3.2, 0.64, 0.128, 0.0256, 0.00512 μM). Subsequently, 0.5 μL of the test compound dilution was transferred into the 96-well plate containing the cells, with each well containing 100 μL of cell culture medium. […] Into the 96-well plate, the diluted test compounds and corresponding detection reagents were added, resulting in final test compound concentrations of 500 nM and 10 nM, respectively. The experimental procedure is described below using the diluted 2 μM test compound as an example.
(§9) 0.5 μL of the aforementioned diluted compound of the present disclosure (including the compounds in Table 1, Table 2, and Examples 1-468) was added to the seeded cells in 100 μL of medium, yielding a final test compound concentration of 10 nM. After the cells were treated with the compounds of the present disclosure for a specified period, the cell viability assay reagent was added to the culture medium according to the kit's instructions to determine cell viability. […] All controls were treated using the same procedure as the compounds of the present disclosure. The growth inhibition curves for the compounds of the present disclosure were plotted using Prism GraphPad software, and the IC50 values were calculated therefrom.

[5] = test system: JEKO-1; test: Inhibition of JEKO-1 cell proliferation (CellTiter luminescent viability); format: cell-based, human; details: Table IC1, BTK inhibitor-based; JEKO-1, 96 hours; read-out: Inhibitory activity (IC50, nM) on tumor cell proliferation, JEKO-1
Procedure: as §7, §8, §9

[6] = test system: Human non-small cell lung cancer cell line NCI-H1975; test: Inhibition of H1975 cell proliferation (CellTiter luminescent viability); format: cell-based; details: Table IC1, BTK inhibitor-based; H1975, 96 hours; read-out: Inhibitory activity (IC50, nM) on tumor cell proliferation, H1975
In short: as §6

[7] = target: T1, BTK (Homo sapiens, UniProt Q06187); test: Western blot degradation of BTK; format: cell-based; details: Table IIA4, BTK inhibitor-based
T1 construct: expression of target proteins in cells; endogenous in cells
T1 sequence (Q06187 whole entry): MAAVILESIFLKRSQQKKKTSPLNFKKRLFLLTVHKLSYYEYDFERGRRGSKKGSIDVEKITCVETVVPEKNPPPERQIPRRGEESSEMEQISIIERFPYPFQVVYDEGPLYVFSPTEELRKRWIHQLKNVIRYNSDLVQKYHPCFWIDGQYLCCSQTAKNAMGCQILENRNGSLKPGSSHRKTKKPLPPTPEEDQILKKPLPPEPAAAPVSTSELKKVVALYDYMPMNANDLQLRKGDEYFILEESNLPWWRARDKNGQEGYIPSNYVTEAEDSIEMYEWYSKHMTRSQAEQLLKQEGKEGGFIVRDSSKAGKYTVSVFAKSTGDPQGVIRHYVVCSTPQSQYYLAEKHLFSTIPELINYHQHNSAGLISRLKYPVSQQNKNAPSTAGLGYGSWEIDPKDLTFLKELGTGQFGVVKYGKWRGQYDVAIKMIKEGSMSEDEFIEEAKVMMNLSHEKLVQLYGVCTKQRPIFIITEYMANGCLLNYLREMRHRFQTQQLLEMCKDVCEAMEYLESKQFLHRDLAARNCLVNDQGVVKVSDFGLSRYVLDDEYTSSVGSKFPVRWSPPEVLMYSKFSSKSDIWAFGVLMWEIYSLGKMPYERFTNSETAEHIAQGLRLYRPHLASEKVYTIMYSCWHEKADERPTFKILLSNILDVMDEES
Procedure: as §1, §2, §3, §4
DC50 values can be calculated using ImageJ software to measure grayscale values of Western blot bands from drug-treated samples. The concentration-response curve is fitted to estimate the drug concentration corresponding to half the grayscale value.
Target protein remaining (%) refers to the percentage of target protein remaining in cells after treatment with protein degrader compounds.
Calculation method for target protein remaining (%): Use ImageJ software to measure grayscale values of Western blot bands from drug (protein degrader)-treated samples. The grayscale value of drug-treated bands is divided by that of internal control protein bands, and the resulting quotient is normalized to obtain the relative percentage of remaining target protein after protein degrader treatment.
Target protein degradation rate (%)=1−target protein remaining (%).

[8] = target: T2, human Cereblon WT GST-tagged protein (CRBN) (Homo sapiens, UniProt Q96SW2); test: CRBN binding by HTRF (Cereblon binding kit)
T2 construct: purchased CISBIO 64BDCRBNPEH
T2 sequence (Q96SW2 whole entry): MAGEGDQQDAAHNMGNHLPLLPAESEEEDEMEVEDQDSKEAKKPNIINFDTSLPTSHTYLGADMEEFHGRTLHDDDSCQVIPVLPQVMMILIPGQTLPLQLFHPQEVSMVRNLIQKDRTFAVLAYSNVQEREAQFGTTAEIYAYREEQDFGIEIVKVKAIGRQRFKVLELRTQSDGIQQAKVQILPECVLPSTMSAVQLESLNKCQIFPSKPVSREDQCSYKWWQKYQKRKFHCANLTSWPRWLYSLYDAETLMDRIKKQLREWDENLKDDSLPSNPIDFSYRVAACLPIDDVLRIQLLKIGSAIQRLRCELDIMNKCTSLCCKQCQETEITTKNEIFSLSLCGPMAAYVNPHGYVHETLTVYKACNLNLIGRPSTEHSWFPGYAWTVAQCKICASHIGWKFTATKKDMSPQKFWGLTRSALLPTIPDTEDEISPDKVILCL
In short: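 GST-tagged human Cereblon WT was incubated 3 h at room temperature with compound, thalidomide-Re tracer and Eu anti-GST antibody. Final compound concentrations were 10 to 0.00064 µM (7 points) or 2 and 0.5 µM. Inhibition rate was calculated from HTRF 665/620 nm ratios versus solvent and blank controls.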

[9] = target: CDK2 (Homo sapiens, UniProt P24941); test: Western blot degradation of CDK2; format: cell-based; details: hPBMC Cell; 24 hours
Procedure: as §1, §2, §3, §4, §5

ER, sequence (P03372 whole entry): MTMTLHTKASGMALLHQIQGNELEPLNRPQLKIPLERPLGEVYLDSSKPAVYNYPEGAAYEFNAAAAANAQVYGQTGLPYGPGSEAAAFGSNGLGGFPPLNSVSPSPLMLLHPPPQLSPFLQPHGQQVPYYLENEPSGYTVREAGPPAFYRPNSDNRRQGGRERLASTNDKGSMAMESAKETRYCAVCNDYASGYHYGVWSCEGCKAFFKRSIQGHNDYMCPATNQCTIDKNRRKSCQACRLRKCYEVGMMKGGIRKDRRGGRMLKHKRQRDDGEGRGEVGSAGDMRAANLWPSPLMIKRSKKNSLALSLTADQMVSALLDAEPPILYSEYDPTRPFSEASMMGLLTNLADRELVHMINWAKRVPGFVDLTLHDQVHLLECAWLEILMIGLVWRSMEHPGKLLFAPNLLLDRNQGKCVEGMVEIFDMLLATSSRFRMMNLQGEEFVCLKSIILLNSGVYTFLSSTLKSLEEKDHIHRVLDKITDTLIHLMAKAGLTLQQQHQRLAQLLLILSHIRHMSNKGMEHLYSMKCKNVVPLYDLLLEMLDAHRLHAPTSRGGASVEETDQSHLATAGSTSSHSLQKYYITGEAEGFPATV
ER, sequence (Q96SW2 whole entry partner): as the sequence (Q96SW2 whole entry) above

## O=C1CCN(N2C(=O)c3ccc(CN4CCN(c5ccc([C@@H]6c7ccc(O)cc7OC[C@@H]6c6ccccc6)cc5)CC4)cc3C2=O)C(=O)N1 [GT-04778, 2-(2,4-dioxotetrahydropyrimidin-1(2H)-yl)-5-((4-(4-((3S,4R)-7-hydroxy-3-phenylchroman-4-yl)phenyl)piperazin-1-yl)methyl)isoindoline-1,3-dione]
[1]
  Degradation of substrate protein ER (substrate protein remaining %): A (0%≤substrate protein remaining %≤80%)

## Nc1ncnc2c1c(-c1ccc(Oc3ccccc3)cc1)nn2C1CCN(Cc2ccc3c(c2)CN(N2CCC(=O)NC2=O)C3=O)CC1 [GT-05075, 1-(5-((4-(4-amino-3-(4-phenoxyphenyl)-1H-pyrazolo[3,4-d]pyrimidin-1-yl)piperidin-1-yl)methyl)-1-oxoisoindolin-2-yl)dihydropyrimidine-2,4 (1H,3H)-dione]
[2]
  IC50: 10 to 50 nM
[3]
  IC50: 50 to 100 nM
[4]
  IC50: 50 to 100 nM
[5]
  IC50: 50 to 100 nM
[6]
  IC50: 50 to 100 nM
[7]
  Degradation of substrate protein BTK (substrate protein remaining %): A (0%≤substrate protein remaining %≤80%)

## Nc1ncnc2c1c(-c1ccc(Oc3ccccc3)cc1)nn2C1CCN(CC2CCN(c3cccc4c3C(=O)N(N3CCC(=O)NC3=O)C4=O)CC2)CC1 [GT-05077, 4-(4-((4-(4-amino-3-(4-phenoxyphenyl)-1H-pyrazolo[3,4-d]pyrimidin-1-yl)piperidin-1-yl)methyl)piperidin-1-yl)-2-(2,4-dioxotetrahydropyrimidin-1(2H)-yl)isoindoline-1,3-dione]
[7]
  Degradation of substrate protein BTK (substrate protein remaining %): A (0%≤substrate protein remaining %≤80%)

## Nc1ncnc2c1c(-c1ccc(Oc3ccccc3)cc1)nn2C1CCN(CC2CCN(C3CCN(c4ccc5c(c4)C(=O)N(N4CCC(=O)NC4=O)C5=O)CC3)CC2)CC1 [GT-05096, 5-(4-((4-(4-amino-3-(4-phenoxyphenyl)-1H-pyrazolo[3,4-d]pyrimidin-1-yl)piperidin-1-yl)methyl)-[1,4′-bipiperidin]-1′-yl)-2-(2,4-dioxotetrahydropyrimidin-1(2H)-yl)isoindoline-1,3-dione]
[8]; 0.5 μM, read-out: Inhibition Rate at 0.5 μM (%)
  inhibition at 0.5 µM: 10 to 20%
[8]; 2 μM, read-out: Inhibition Rate at 2 μM (%)
  inhibition at 2 µM: 53 to 60%
[7]
  Degradation of substrate protein BTK (substrate protein remaining %): A (0%≤substrate protein remaining %≤80%)

## Cc1cc(S(=O)(=O)N2CCN(Cc3ccc4c(c3)C(=O)N(N3CCC(=O)NC3=O)C4=O)CC2)ccc1Nc1ncc(Br)c(Nc2cccc(F)c2C(N)=O)n1 [GT-06829, 2-((5-bromo-2-((4-((4-((2-(2,4-dioxotetrahydropyrimidin-1(2H)-yl)-1,3-dioxoisoindolin-5-yl)methyl)piperazin-1-yl)sulfonyl)-2-methylphenyl)amino)pyrimidin-4-yl)amino)-6-fluorobenzamide]
[9]
  Degradation of substrate protein CDK2 (substrate protein remaining %): A (0%≤substrate protein remaining %≤80%)
